Source: US20070173438A1, “[PSI[CH2NH]PG4] glycopeptide antibiotic analogs” (The Scripps Research Institute, priority 2006, published 2007)
≈ marks a conversion by molar mass, not a printed value. Where “and” joins values, the source holds several entries; their conditions need not be identical. Equal entries are not always repeated.

Columns and labels:
[1] = system: N,N′-Ac2-Lys-D-Ala-D-Ala (2); assay: UV difference titration binding constant with model ligand N,N′-Ac2-Lys-D-Ala-D-Ala; settings: for Ka, affinity for D-Ala-D-Ala (Ac2-L-Lys-D-Ala-D-Ala, 2): association constant, 0.02 M sodium citrate buffer, Scatchard plot
Experimental: (§1) Binding Constant Determination. The binding constants for compounds 5 and 41 for association with the model ligands N,N′-Ac2-Lys-D-Ala-D-Ala and N,N′-Ac2-Lys-D-Ala-D-Lac were determined according to literature (Nieto, M.; Perkins, H. R. Biochem. J. 1971, 124, 845; Nieto, M.; Perkins, H. R. Biochem. J. 1971, 124, 773; Nieto, M.; Perkins, H. R. Biochem. J. 1971, 124, 789) protocols. UV difference experiments were carried out on a CARY 3E UV-Vis spectrometer. UV scans were run with a baseline correction that consisted of 0.02 M sodium citrate buffer and covered a range from 200 to 345 nm. A solution of 5 or 41 (1.1×10^−4 M in 0.02 M sodium citrate buffer) was placed into a quartz UV cuvette (1.0 cm path length) and the UV spectrum recorded versus a reference cell containing 0.02 M sodium citrate buffer. UV spectra were recorded after each addition of a solution of N,N′-Ac2-Lys-D-Ala-D-Ala or N,N′-Ac2-Lys-D-Ala-D-Lac in 0.02 M sodium citrate buffer to each cell from 0.1 to 140.0 equivalents. The absorbance value at the λmax was recorded and the running change in absorbance, ΔAx equiv (Ainitial−Ax equiv, ) measured. The number of ligand equivalents was plotted versus ΔA to afford the ligand binding titration curve. The break point of this curve is the saturation point of the system and its xy coordinates determined by establishing the intersection of the linear fits of the pre and postsaturation curves. ΔAsaturation was calculated and employed to determine the concentration of free ligand in solution at each titration. ΔA was plotted versus ΔA/free ligand concentration to give a Scatchard plot from which the binding constants were determined.

[2] = system: N,N′-Ac2-Lys-D-Ala-D-Lac (4); assay: UV difference titration binding constant with model ligand N,N′-Ac2-Lys-D-Ala-D-Lac; settings: for Ka, affinity for D-Ala-D-Lac (Ac2-L-Lys-D-Ala-D-Lac, 4): association constant, 0.02 M sodium citrate buffer, Scatchard plot
Experimental: as §1

[3] = system: VanA Enterococcus faecalis (BM4166); assay: antimicrobial assay against VanA resistant organism; assay type: cell-based; settings: for potency weaker than vancomycin and its aglycon against sensitive E. faecalis: MIC against VanA BM4166 compared with vancomycin/aglycon MIC against sensitive E. faecalis
Text: (§2) It is the most difficult of the resistant organisms to treat (vs VanB) and characteristic of such organisms, they grow unchallenged enlisting a D-Ala-D-Ala peptidoglycan cell wall precursor, but switch to D-Ala-D-Lac upon glycopeptide treatment.

sensitive E. faecalis = assay: antimicrobial activity against sensitive E. faecalis; assay type: cell-based; settings: Enterococcus faecalis
Text: as §2

[4] = system: N,N′-Ac2-Lys-D-Ala-D-Lac (4); settings: cited from earlier work
[5] = system: 3 (methylene analogue of Ac2-L-Lys-D-Ala-D-Ala); settings: cited from earlier work
[6] = system: enterococci resistant to vancomycin, VanA and VanB; settings: literature; cited from earlier work

SMILES	increase in binding affinity for D-Ala-D-Ala, 5 versus 41 ([1]; 5 versus carbamate 41)	Ka, affinity for D-Ala-D-Ala (Ac2-L-Lys-D-Ala-D-Ala, 2) [1]	reduction in affinity for D-Ala-D-Ala relative to the vancomycin aglycon ([1]; relative to vancomycin aglycon)	increase in binding affinity for D-Ala-D-Lac, 5 versus 41 ([2]; 5 versus carbamate 41)	Ka, affinity for D-Ala-D-Lac (Ac2-L-Lys-D-Ala-D-Lac, 4) [2]	increase in affinity for D-Ala-D-Lac relative to the vancomycin aglycon ([2]; relative to vancomycin aglycon)	potency weaker than vancomycin and its aglycon against sensitive E. faecalis [3]	MIC ([3]; VanA E. faecalis BM4166)	potency relative to vancomycin or its aglycon (more potent) ([3]; VanA E. faecalis BM4166)	MIC ([3]; Enterococcus faecalis)	MIC (sensitive E. faecalis)	reduction of binding to D-Ala-D-Lac ligand versus D-Ala-D-Ala ([4]; literature)	destabilizing lone pair/lone pair interaction with ester oxygen of 4 ([4]; share of lost binding energy)	reduced binding affinity of 4 ([4]; versus 2, total loss)	affinity for 3 less than that of 2 ([5]; relative to Ac2-L-Lys-D-Ala-D-Ala (2))	affinity for 3 greater than that of 4 ([5]; relative to Ac2-L-Lys-D-Ala-D-Lac (4))	drop in antimicrobial activity with D-Ala-D-Lac resistant bacteria [6]
CN[C@H](CC(C)C)C(=O)N[C@H]1C(=O)N[C@@H](CC(N)=O)C(=O)N[C@H]2CN[C@H]3C(=O)N[C@H](C(=O)N[C@H](C(=O)O)c4cc(O)cc(O)c4-c4cc3ccc4O)[C@H](O)c3ccc(c(Cl)c3)Oc3cc2cc(c3O)Oc2ccc(cc2Cl)[C@H]1O [Compound 5, [ψ[CH2NH]Tpg^4]vancomycin aglycon]	3 fold	4800 M⁻¹	37 fold and 35 fold	1.2 fold	5200 M⁻¹	43 fold and 40 fold	roughly 30 fold	31 µg/mL (≈ 27.4 µM)	roughly 40 fold								
CN[C@H](CC(C)C)C(=O)N[C@H]1C(=O)N[C@@H](CC#N)C(=O)N[C@H]2CN(C(=O)OC)[C@H]3C(=O)N[C@H](C(=O)N[C@H](COCOCCOC)c4cc(OC)cc(OC)c4-c4cc3ccc4OC)[C@H](O)c3ccc(c(Cl)c3)Oc3cc2cc(c3OC)Oc2ccc(cc2Cl)[C@H]1O [Compound 41]		1600 M⁻¹			4100 M⁻¹		roughly 30 fold	31 µg/mL (≈ 23.8 µM)	roughly 40 fold								
CN[C@H](CC(C)C)C(=O)N[C@H]1C(=O)N[C@@H](CC(N)=O)C(=O)N[C@H]2C(=O)N[C@H]3C(=O)N[C@H](C(=O)N[C@H](C(=O)O)c4cc(O)cc(O)c4-c4cc3ccc4O)[C@H](O)c3ccc(c(Cl)c3)Oc3cc2cc(c3O)Oc2ccc(cc2Cl)[C@H]1O [vancomycin aglycon, reference compound]		170000 M⁻¹			120 M⁻¹			640 µg/mL (≈ 559 µM)									
CN[C@H](CC(C)C)C(=O)N[C@H]1C(=O)N[C@@H](CC(N)=O)C(=O)N[C@H]2C(=O)N[C@H]3C(=O)N[C@H](C(=O)N[C@H](C(=O)O)c4cc(O)cc(O)c4-c4cc3ccc4O)[C@H](O)c3ccc(c(Cl)c3)Oc3cc2cc(c3O[C@@H]2O[C@H](CO)[C@@H](O)[C@H](O)[C@H]2O[C@H]2C[C@](C)(N)[C@H](O)[C@H](C)O2)Oc2ccc(cc2Cl)[C@H]1O [vancomycin]										2000 µg/mL (≈ 1380 µM)	1 to 2.5 µg/mL (≈ 0.69 to 1.73 µM)	1000 fold	2.6 kcal/mol	4.1 kcal/mol	approximately 10 fold	100 fold	1000 fold
